The source made the active and inactive calls.
Legend:
[1] = target: Peroxisome proliferator-activated receptor gamma/Nuclear receptor coactivator 1 (Homo sapiens, UniProt P37231); assay: (§1) TR-FRET dose response biochemical High Throughput Screening assay for agonists of the steroid receptor coactivator 1 (SRC-1) recruitment by the peroxisome proliferator-activated receptor gamma (PPAR gamma): non-selective agonists. [Related pubchem assays (depositor defined):AID1300, AID1808, AID504735, AID631]; format: protein assay
[2] = target: Peroxisome proliferator-activated receptor gamma/Nuclear receptor coactivator 3 (Homo sapiens, UniProt P37231); assay: as §1, with “3 (SRC-3)” for “1 (SRC-1)”, “assays: 1301 (Confirmation screen.), 1048 (Primary screen.)]” for “assays (depositor defined):AID1300, AID1808, AID504735, AID631]”; format: functional
[3] = target: Peroxisome proliferator-activated receptor gamma/Nuclear receptor coactivator 2 (Homo sapiens, UniProt P37231); assay: TR-FRET dose response biochemical High Throughput Screening assay for agonists of the steroid receptor coactivator 2 (SRC-2) recruitment by the peroxisome proliferator-activated receptor gamma (PPAR gamma): non-selective agonists. [Related pubchem assays: 1297, 1032 ]; format: functional
SUMO-activating enzyme = SUMO-activating enzyme (Homo sapiens, UniProt Q9UBT2); assay: SUMOylation inhibitor hit validation, confirmation, SUMOylation inhibitor project, biochemical, AlphaScreen (AID 2018); format: functional
Coagulation factor XII = target: T1, Coagulation factor XII (Homo sapiens, UniProt P00748); format: functional;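 also: activated factor XIIa alpha cleaving a fluorogenic AMC peptide substrate; inhibitor potency from loss of enzyme activity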
T1 sequence (P00748 whole entry): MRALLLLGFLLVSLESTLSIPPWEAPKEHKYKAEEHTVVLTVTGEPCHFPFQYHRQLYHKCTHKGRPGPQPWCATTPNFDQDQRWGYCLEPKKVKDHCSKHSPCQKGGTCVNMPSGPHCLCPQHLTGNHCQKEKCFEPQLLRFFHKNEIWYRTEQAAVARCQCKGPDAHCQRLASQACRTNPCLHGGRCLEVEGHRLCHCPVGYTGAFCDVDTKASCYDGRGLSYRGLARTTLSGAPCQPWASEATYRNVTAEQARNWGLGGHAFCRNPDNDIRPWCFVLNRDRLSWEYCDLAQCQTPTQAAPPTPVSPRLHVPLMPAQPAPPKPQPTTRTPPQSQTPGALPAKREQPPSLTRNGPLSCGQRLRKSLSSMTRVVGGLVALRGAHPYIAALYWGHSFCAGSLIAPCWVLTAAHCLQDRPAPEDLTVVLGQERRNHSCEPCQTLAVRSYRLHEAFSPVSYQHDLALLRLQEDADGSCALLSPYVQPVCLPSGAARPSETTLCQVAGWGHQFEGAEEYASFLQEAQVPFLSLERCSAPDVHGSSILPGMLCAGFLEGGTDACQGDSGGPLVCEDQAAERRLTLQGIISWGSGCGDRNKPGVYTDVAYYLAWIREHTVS

[4] = target: Eukaryotic translation initiation factor 4E (Mus musculus, UniProt P63073); assay: eIF4E–eIF4G protein interaction inhibitors, dose response, biochemical, TR-FRET (AID 855); format: functional;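 also: potency for disrupting eIF4E binding to eIF4GI seen as loss of FRET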
[5] = target: Induced myeloid leukemia cell differentiation protein Mcl-1 (Homo sapiens, UniProt Q07820); format: functional
[6] = target: DNA dC->dU-editing enzyme APOBEC-3A (Homo sapiens, UniProt P31941); assay: Dose Response confirmation of small molecule APOBEC3A DNA Deaminase Inhibitors via a fluorescence-based single-stranded DNA deaminase assay. [Related pubchem assays (depositor defined):AID493011, AID493024]; format: functional
[7] = target: DNA dC->dU-editing enzyme APOBEC-3G (Homo sapiens, UniProt Q9HC16); format: functional;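 also: Dose-response counterscreen measuring inhibition of APOBEC3G DNA deaminase activity, run while confirming APOBEC3A inhibitors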
[8] = target: T2, Corticotropin-releasing factor receptor 2/Corticotropin-releasing factor-binding protein (Homo sapiens, UniProt P24387+Q13324); assay: activators of CRF receptor 2 with binding protein – uHTS hits, confirmation (AID 602473); format: functional; conditions: read-out: EC50_Mean
T2 sequence (Q13324 whole entry): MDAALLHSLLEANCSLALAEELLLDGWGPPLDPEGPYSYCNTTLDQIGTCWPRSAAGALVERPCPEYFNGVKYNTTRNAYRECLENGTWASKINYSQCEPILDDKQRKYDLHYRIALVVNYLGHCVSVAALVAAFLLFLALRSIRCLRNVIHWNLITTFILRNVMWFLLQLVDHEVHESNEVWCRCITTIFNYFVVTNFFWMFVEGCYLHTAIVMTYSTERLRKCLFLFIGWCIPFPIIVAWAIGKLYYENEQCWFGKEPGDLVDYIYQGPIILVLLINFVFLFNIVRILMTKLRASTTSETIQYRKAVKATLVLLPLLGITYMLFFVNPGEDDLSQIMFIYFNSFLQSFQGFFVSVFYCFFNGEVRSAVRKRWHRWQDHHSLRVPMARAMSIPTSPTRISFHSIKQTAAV
T2 sequence (P24387 whole entry): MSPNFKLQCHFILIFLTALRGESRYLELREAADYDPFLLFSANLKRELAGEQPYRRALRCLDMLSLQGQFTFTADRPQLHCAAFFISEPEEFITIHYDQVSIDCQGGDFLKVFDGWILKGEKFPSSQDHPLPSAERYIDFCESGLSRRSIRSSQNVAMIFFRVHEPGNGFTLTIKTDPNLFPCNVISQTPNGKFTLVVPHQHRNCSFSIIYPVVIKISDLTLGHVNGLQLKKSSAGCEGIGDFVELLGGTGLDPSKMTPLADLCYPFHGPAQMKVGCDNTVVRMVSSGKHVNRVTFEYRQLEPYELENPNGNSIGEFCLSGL

Bcl-2-like protein 10 = target: T3, Bcl-2-like protein 10 (Homo sapiens, UniProt Q9HD36); assay: displacers of TR3 peptide from Bcl-B, primary screen, selectivity assay for Bfl-1 inhibitor project, biochemical, fluorescence polarization, FITC-TR3 peptide (AID 748);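 also: fluorescence polarization from a fluorescein-labelled TR3 peptide binding purified Bcl-B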
T3 sequence (Q9HD36 whole entry): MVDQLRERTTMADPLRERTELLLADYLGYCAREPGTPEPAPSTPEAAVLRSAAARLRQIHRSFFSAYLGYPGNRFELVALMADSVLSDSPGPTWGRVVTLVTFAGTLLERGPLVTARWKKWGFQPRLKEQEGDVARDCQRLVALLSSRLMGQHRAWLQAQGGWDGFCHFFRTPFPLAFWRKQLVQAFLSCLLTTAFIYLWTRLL

Estrogen receptor = target: T4, Estrogen receptor (Homo sapiens, UniProt P03372);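 also: potency for inhibiting coactivator peptide recruitment to the receptor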
T4 sequence (P03372 whole entry): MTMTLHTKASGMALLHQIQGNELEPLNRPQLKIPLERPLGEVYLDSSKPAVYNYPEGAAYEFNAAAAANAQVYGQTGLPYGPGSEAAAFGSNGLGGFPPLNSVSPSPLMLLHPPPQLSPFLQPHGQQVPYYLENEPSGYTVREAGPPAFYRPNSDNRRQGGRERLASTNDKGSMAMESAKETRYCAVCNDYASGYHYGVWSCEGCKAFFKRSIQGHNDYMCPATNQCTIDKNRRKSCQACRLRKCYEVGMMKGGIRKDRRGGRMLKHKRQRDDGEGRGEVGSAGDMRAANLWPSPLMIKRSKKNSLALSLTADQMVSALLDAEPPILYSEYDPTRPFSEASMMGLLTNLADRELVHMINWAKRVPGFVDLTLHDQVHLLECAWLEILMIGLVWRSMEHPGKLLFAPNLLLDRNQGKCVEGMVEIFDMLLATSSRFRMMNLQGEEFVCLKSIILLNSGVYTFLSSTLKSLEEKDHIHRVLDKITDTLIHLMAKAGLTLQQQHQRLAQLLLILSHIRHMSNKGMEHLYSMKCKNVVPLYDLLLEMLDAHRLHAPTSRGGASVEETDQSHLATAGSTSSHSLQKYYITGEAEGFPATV

Chain of Induced myeloid leukemia cell differentiation protein Mcl-1 (Q07820 whole entry): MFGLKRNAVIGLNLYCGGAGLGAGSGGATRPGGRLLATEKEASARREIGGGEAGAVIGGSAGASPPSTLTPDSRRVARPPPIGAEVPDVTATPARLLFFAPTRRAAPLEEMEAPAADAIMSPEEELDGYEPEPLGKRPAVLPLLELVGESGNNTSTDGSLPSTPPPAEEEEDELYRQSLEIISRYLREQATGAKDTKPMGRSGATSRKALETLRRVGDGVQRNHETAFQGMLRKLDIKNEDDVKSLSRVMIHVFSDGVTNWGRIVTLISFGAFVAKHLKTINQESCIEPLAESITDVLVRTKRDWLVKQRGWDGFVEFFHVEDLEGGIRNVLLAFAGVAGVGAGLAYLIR
Chain of Peroxisome proliferator-activated receptor gamma/Nuclear receptor coactivator 1 (P37231 whole entry): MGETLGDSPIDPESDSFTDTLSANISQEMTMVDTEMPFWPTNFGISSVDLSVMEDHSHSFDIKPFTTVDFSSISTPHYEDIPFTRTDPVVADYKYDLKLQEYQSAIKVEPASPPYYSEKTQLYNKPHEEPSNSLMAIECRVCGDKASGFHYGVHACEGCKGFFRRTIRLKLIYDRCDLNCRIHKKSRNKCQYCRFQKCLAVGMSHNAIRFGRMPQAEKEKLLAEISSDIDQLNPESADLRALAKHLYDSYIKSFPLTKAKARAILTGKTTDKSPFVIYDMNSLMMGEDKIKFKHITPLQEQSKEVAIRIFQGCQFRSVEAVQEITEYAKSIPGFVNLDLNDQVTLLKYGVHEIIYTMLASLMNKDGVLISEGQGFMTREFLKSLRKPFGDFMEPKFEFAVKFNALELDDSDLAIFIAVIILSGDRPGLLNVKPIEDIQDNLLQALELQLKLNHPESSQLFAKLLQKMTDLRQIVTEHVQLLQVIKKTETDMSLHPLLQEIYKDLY
Chain of Peroxisome proliferator-activated receptor gamma/Nuclear receptor coactivator 1 (Q15788 whole entry, further chain): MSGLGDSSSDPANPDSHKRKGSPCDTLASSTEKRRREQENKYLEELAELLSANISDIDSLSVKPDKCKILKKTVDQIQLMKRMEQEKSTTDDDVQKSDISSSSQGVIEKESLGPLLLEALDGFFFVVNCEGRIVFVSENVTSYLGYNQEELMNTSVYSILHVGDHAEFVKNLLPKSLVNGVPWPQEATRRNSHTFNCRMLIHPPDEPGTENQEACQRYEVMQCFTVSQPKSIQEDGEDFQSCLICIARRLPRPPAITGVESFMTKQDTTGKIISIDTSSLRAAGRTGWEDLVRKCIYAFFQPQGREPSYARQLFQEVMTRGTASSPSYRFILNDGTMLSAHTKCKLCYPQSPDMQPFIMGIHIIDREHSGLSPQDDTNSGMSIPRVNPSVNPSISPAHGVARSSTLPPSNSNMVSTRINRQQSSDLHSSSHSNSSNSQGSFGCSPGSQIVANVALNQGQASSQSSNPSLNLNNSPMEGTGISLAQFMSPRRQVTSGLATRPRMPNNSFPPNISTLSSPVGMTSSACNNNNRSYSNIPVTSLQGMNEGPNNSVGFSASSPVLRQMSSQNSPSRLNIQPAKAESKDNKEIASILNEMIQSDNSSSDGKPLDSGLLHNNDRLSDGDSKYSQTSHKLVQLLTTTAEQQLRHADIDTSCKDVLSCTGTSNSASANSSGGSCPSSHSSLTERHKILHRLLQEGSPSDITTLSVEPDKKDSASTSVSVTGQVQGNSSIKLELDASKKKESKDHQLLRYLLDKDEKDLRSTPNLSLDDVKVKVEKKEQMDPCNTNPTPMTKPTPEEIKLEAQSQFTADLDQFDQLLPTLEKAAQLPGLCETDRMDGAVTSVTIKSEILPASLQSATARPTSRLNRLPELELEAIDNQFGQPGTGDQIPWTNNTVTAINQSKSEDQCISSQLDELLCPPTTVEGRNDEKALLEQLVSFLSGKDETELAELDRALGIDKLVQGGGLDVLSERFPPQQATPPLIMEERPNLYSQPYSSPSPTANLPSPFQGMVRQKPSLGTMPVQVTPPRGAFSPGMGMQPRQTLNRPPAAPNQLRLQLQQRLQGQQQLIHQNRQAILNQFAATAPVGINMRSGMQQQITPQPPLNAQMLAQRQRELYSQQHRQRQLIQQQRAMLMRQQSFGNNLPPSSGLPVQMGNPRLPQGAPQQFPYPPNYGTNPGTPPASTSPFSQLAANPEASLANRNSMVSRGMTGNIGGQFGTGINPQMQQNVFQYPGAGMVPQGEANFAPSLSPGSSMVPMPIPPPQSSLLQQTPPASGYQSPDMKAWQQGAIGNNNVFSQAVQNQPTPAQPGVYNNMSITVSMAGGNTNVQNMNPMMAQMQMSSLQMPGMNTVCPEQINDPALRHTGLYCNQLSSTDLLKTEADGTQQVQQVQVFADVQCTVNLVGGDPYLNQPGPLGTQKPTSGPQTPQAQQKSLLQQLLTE
Chain of Peroxisome proliferator-activated receptor gamma/Nuclear receptor coactivator 2 (P37231 whole entry): as the sequence (P37231 whole entry) above
Chain of Peroxisome proliferator-activated receptor gamma/Nuclear receptor coactivator 2 (Q15596 whole entry, further chain): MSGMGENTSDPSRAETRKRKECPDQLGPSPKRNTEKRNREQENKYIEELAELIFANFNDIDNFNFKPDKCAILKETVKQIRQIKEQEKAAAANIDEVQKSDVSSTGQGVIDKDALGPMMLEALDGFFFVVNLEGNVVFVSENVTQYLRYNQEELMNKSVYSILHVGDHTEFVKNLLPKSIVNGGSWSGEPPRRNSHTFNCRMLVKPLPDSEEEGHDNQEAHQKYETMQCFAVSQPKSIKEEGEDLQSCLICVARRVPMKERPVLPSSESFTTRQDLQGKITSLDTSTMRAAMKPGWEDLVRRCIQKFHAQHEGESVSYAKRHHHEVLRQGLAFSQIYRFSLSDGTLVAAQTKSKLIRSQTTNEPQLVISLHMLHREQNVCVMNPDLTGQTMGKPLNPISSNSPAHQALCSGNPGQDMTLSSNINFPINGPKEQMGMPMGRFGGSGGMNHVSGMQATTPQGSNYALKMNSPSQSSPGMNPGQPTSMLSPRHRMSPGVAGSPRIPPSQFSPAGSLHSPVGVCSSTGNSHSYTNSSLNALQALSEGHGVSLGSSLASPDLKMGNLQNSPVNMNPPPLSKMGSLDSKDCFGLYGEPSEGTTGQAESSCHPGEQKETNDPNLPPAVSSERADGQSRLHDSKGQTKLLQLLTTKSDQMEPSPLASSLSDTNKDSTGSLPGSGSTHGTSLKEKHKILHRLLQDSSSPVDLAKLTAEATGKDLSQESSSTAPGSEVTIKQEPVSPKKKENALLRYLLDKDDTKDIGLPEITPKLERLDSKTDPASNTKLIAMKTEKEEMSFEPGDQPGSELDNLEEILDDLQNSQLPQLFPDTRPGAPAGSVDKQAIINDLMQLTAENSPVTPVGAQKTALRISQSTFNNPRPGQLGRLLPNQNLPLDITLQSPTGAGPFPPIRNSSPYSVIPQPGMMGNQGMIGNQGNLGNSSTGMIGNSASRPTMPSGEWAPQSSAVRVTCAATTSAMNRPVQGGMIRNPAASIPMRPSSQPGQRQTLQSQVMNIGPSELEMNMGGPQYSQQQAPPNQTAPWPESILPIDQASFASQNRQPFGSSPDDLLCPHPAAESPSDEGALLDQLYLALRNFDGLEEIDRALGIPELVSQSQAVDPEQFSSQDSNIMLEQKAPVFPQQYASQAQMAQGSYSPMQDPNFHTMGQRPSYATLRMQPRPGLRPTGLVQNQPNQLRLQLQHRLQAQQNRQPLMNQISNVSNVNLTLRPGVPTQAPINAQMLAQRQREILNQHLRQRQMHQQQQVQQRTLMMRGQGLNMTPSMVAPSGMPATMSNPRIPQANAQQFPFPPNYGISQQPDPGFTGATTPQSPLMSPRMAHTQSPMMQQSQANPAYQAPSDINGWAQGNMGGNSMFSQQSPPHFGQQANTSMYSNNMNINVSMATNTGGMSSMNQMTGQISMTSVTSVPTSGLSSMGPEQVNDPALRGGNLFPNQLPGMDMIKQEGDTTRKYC
Chain of DNA dC->dU-editing enzyme APOBEC-3G (Q9HC16 whole entry): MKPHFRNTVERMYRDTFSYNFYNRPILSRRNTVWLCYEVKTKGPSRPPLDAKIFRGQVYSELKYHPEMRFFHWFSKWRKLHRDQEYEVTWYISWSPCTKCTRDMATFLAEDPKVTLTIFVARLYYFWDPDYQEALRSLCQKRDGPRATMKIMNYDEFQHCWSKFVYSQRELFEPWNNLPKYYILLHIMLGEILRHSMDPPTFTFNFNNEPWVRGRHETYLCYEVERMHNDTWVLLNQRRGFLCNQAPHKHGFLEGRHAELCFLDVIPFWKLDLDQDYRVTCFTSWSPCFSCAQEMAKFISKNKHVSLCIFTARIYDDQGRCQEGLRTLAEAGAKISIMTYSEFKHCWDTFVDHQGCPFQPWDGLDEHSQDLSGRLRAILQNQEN
Chain of DNA dC->dU-editing enzyme APOBEC-3A (P31941 whole entry): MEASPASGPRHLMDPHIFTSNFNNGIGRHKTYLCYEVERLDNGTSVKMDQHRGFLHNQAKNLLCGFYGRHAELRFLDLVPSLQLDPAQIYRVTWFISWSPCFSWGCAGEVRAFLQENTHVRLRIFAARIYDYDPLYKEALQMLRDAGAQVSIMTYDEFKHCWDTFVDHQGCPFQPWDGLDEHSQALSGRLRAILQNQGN

Structure (SMILES): O=C(Nc1ccc(S(=O)(=O)Nc2ncccn2)cc1)c1ccc(Br)s1
- EC50 [1]: > 79.4 µM (inactive)
- EC50 [2]: > 79.4 µM (not active)
- EC50 [3]: > 79.4 µM (not active)

Structure (SMILES): CCc1nn(CC(=O)NC(C)CCc2ccccc2)c(=O)c2cc3cc(F)ccc3n12 (stereo not drawn)
- IC50 (SUMO-activating enzyme): 45.3 µM (active)

Structure (SMILES): CCc1cccc(CC)c1N(COC)C(=O)Cn1c(CO)nc2ccccc21
- IC50 (Coagulation factor XII): > 50 µM (inactive)

Structure (SMILES): COc1ccc(NC(C)C(=O)Nc2ccc(C#N)cc2)cc1Cl (stereo not drawn)
- IC50 [4]: > 64 µM (inactive)
- IC50 [5]: 35.9 µM (not active)

Structure (SMILES): COC(=O)Cn1cc(/C=C/c2cc[n+](C)cc2)c2ccccc21
- IC50 [6]: 3.05 µM (active)
- IC50 [7]: 3.58 µM (active)
- EC50 [8]: 8.34 µM (active)

Structure (SMILES): COC(=O)CNc1c(-c2ccccn2)nc2ccc(Br)cn12
- IC50 (Bcl-2-like protein 10): > 12.5 µM (inactive)

Structure (SMILES): COc1ccccc1N1CCN(C(=O)c2cc3c(s2)CCC3)CC1
- IC50 (Bcl-2-like protein 10): 36.6 µM (active)
- IC50 (Estrogen receptor): 5.19 µM (active)

Reference: ChEMBL document CHEMBL1201862, “PubChem BioAssay data set” (2004)
